Assay results as given in patent US9944647B2 (Incyte Corporation, priority 2015, dated 2018).

target: LSD-1 enzyme (Homo sapiens (Human), UniProt O60341); assay: LANCE LSD1/KDM1A demethylase assay (LSD1 histone demethylase biochemical assay); conditions: 1 nM LSD-1 enzyme, 1 hour preincubation at 25° C., Biotin-labeled Histone H3 peptide substrate
Protocol: Example A: LSD1 Histone Demethylase Biochemical Assay
LANCE LSD1/KDM1A demethylase assay—10 μL of 1 nM LSD-1 enzyme (ENZO BML-SE544-0050) in the assay buffer (50 mM Tris, pH 7.5, 0.01% Tween-20, 25 mM NaCl, 5 mM DTT) were preincubated for 1 hour at 25° C. with 0.8 μL compound/DMSO dotted in black 384 well polystyrene plates. […] Reactions were stopped by addition of 10 μL 1×LANCE Detection Buffer (PerkinElmer CR97-100) supplemented with 1.5 nM Eu-anti-unmodified H3K4 Antibody (PerkinElmer TRF0404), and 225 nM LANCE Ultra Streptavidin (PerkinElmer TRF102) along with 0.9 mM Tranylcypromine-HCl (Millipore 616431). After stopping the reactions plates were incubated for 30 minutes and read on a PHERAstar FS plate reader (BMG Labtech).

SMILES	IC50 [nM]
Cn1ncc2cc(-c3c(-c4ccc(C#N)cc4)nc(OC[C@@H]4CCCN(CCC#N)C4)n4ccnc34)cnc21 [Example 33, 4-[5-{[(3R)-1-(2-cyanoethyl)piperidin-3-yl]methoxy}-8-(1-methyl-1H-pyrazolo[3,4-b]pyridin-5-yl)imidazo[1,2-c]pyrimidin-7-yl]benzonitrile]	≤ 50
CN(C)C1CCN(c2nc(-c3ccc(C#N)cc3)c(-c3cc(F)c4c(c3)oc(=O)n4C)c3nccn23)CC1 [Example 58, 4-[5-[4-(dimethylamino)piperidin-1-yl]-8-(4-fluoro-3-methyl-2-oxo-2,3-dihydro-1,3-benzoxazol-6-yl)imidazo[1,2-c]pyrimidin-7-yl]benzonitrile]	≤ 50
Cc1ccc(-c2c(-c3ccc(C#N)cc3)nc(N3CCC(N(C)C)CC3)n3ccnc23)c(CO)c1 [Example 111, 4-{5-[4-(dimethylamino)piperidin-1-yl]-8-[2-(hydroxymethyl)-4-methylphenyl]imidazo[1,2-c]pyrimidin-7-yl}benzonitrile]	≤ 50
CN1CCC[C@@H](COc2nc(-c3ccc(C#N)cc3)c(-c3ccc4c(c3)c(N)nn4C)c3nccn23)C1 [Example 42, 4-(8-(3-amino-1-methyl-1H-indazol-5-yl)-5-{[(3R)-1-methylpiperidin-3-yl]methoxy}imidazo[1,2-c]pyrimidin-7-yl)benzonitrile]	≤ 50
CN1CCC[C@@H](COc2nc(-c3ccc(C#N)cc3)c(-c3ccc4c(c3)C(O)CC4)c3nccn23)C1 (stereo partly drawn) [Example 123, 4-(8-(3-hydroxy-2,3-dihydro-1H-inden-5-yl)-5-{[(3R)-1-methylpiperidin-3-yl]methoxy}imidazo[1,2-c]pyrimidin-7-yl)benzonitrile]	≤ 50
CN1CCC2(CCN(c3nc(-c4ccc(C#N)cc4)c(-c4cnc5c(cnn5C)c4)c4nccn34)C2)C1 (centres unmarked) [Example 39, 4-[5-(7-methyl-2,7-diazaspiro[4.4]non-2-yl)-8-(1-methyl-1H-pyrazolo[3,4-b]pyridin-5-yl)imidazo[1,2-c]pyrimidin-7-yl]benzonitrile]	≤ 50
CCN1CCC[C@@H](COc2nc(-c3ccc(C#N)cc3)c(-c3cc(C)c(CO)c(F)c3)c3nccn23)C1 [Example 109, 4-{5-{[(3R)-1-ethylpiperidin-3-yl]methoxy}-8-[3-fluoro-4-(hydroxymethyl)-5-methylphenyl]imidazo[1,2-c]pyrimidin-7-yl}benzonitrile]	≤ 50
CN(C)C1CCN(c2nc(-c3ccc(C#N)cc3)c(-c3cc4c(cc3F)n(C)c(=O)n4C)c3nccn23)CC1 [Example 129, 4-[5-[4-(dimethylamino)piperidin-1-yl]-8-(6-fluoro-1,3-dimethyl-2-oxo-2,3-dihydro-1H-benzimidazol-5-yl)imidazo[1,2-c]pyrimidin-7-yl]benzonitrile]	≤ 50
Cc1ccc(-c2c(-c3ccc(C#N)cc3)nc(OC[C@@H]3CCCN(C)C3)n3ccnc23)cc1C(C)O (stereo partly drawn) [Example 93, 4-(8-[3-(1-hydroxyethyl)-4-methylphenyl]-5-{[(3R)-1-methylpiperidin-3-yl]methoxy}imidazo[1,2-c]pyrimidin-7-yl)benzonitrile]	≤ 50
CN1CCC[C@@H](COc2nc(-c3ccc(C#N)cc3)c(-c3ccc(CN(C)S(C)(=O)=O)c(F)c3)c3nccn23)C1 [Example 84, N-[4-(7-(4-cyanophenyl)-5-{[(3R)-1-methylpiperidin-3-yl]methoxy}imidazo[1,2-c]pyrimidin-8-yl)-2-fluorobenzyl]-N-methylmethanesulfonamide]	50 to 500
COc1ncc(-c2c(-c3ccc(C#N)cc3)nc(N3CCC(N(C)C)CC3)n3ccnc23)cc1C [Example 53, 4-[5-[4-(dimethylamino)piperidin-1-yl]-8-(6-methoxy-5-methylpyridin-3-yl)imidazo[1,2-c]pyrimidin-7-yl]benzonitrile]	≤ 50
Cc1ccc(-c2c(-c3ccc(C#N)cc3)nc(OC[C@@H]3CCCN(C)C3)n3ccnc23)cc1C#N [Example 96, 5-(7-(4-cyanophenyl)-5-{[(3R)-1-methylpiperidin-3-yl]methoxy}imidazo[1,2-c]pyrimidin-8-yl)-2-methylbenzonitrile]	≤ 50
Cc1ncc(-c2c(-c3ccc(C#N)cc3)nc(N3CCC(N(C)C)CC3)n3ccnc23)cc1F [Example 113, 4-[5-[4-(dimethylamino)piperidin-1-yl]-8-(5-fluoro-6-methylpyridin-3-yl)imidazo[1,2-c]pyrimidin-7-yl]benzonitrile]	≤ 50
CCOc1ccc(-c2c(-c3ccc(C#N)cc3)nc(N3CCC(N(C)C)CC3)n3ccnc23)cn1 [Example 117, 4-[5-[4-(dimethylamino)piperidin-1-yl]-8-(6-ethoxypyridin-3-yl)imidazo[1,2-c]pyrimidin-7-yl]benzonitrile]	≤ 50
CN1C(=O)Cc2cc(-c3c(-c4ccc(C#N)cc4)nc(N4CCC(N(C)C)CC4)n4ccnc34)ccc21 [Example 62, 4-[5-[4-(dimethylamino)piperidin-1-yl]-8-(1-methyl-2-oxo-2,3-dihydro-1H-indol-5-yl)imidazo[1,2-c]pyrimidin-7-yl]benzonitrile]	≤ 50
CN1CC[C@@H](COc2nc(-c3ccc(C#N)cc3)c(-c3ccc4c(c3)ncn4C)c3nccn23)C1 [Example 25, 4-(8-(1-methyl-1H-benzimidazol-5-yl)-5-{[(3R)-1-methylpyrrolidin-3-yl]methoxy}imidazo[1,2-c]pyrimidin-7-yl)benzonitrile]	50 to 500
CN(C)C1CCN(c2nc(-c3ccc(C#N)cc3)c(-c3ccc4scnc4c3)c3nccn23)CC1 [Example 120, 4-{8-(1,3-benzothiazol-5-yl)-5-[4-(dimethylamino)piperidin-1-yl]imidazo[1,2-c]pyrimidin-7-yl}benzonitrile]	≤ 50
C[C@H](O)CN1CCC[C@@H](COc2nc(-c3ccc(C#N)cc3)c(-c3cnc4c(cnn4C)c3)c3nccn23)C1 [Example 137, 4-[5-({(3R)-1-[(2S)-2-hydroxypropyl]piperidin-3-yl}methoxy)-8-(1-methyl-1H-pyrazolo[3,4-b]pyridin-5-yl)imidazo[1,2-c]pyrimidin-7-yl]benzonitrile]	≤ 50
C[C@@H](O)CN1CCC[C@@H](COc2nc(-c3ccc(C#N)cc3)c(-c3cnc4c(cnn4C)c3)c3nccn23)C1 [Example 136, 4-[5-({(3R)-1-[(2R)-2-hydroxypropyl]piperidin-3-yl}methoxy)-8-(1-methyl-1H-pyrazolo[3,4-b]pyridin-5-yl)imidazo[1,2-c]pyrimidin-7-yl]benzonitrile]	50 to 500
COC(=O)N(C)c1ccc(-c2c(-c3ccc(C#N)cc3)nc(N3CCC(N(C)C)CC3)n3ccnc23)cn1 [Example 67]	50 to 500
COc1ncc(-c2c(-c3ccc(C#N)cc3)nc(N3CCC(N(C)C)CC3)n3ccnc23)cc1F [Example 49, 4-[5-[4-(dimethylamino)piperidin-1-yl]-8-(5-fluoro-6-methoxypyridin-3-yl)imidazo[1,2-c]pyrimidin-7-yl]benzonitrile]	≤ 50
COc1ncc(-c2c(-c3ccc(C#N)cc3)nc(OC[C@@H]3CCCN(CCO)C3)n3ccnc23)cc1F [Example 57, 4-(8-(5-fluoro-6-methoxypyridin-3-yl)-5-{[(3R)-1-(2-hydroxyethyl)piperidin-3-yl]methoxy}imidazo[1,2-c]pyrimidin-7-yl)benzonitrile]	≤ 50
Cc1ncc(-c2c(-c3ccc(C#N)cc3)nc(N3CCC(N(C)C)CC3)n3ccnc23)cc1Cl [Example 103, 4-{8-(5-chloro-6-methylpyridin-3-yl)-5-[4-(dimethylamino)piperidin-1-yl]imidazo[1,2-c]pyrimidin-7-yl}benzonitrile]	≤ 50
CN(C)C1CCN(c2nc(-c3ccc(C#N)cc3)c(-c3ccc(CN4CCOCC4)c(F)c3)c3nccn23)CC1 [Example 98, 4-{5-[4-(dimethylamino)piperidin-1-yl]-8-[3-fluoro-4-(morpholin-4-ylmethyl)phenyl]imidazo[1,2-c]pyrimidin-7-yl}benzonitrile]	≤ 50
CN1CCC[C@@H](COc2nc(-c3ccc(C#N)cc3)c(-c3ccc4c(c3)OC(C(=O)N(C)C)CO4)c3nccn23)C1 (stereo partly drawn) [Example 76, 7-(7-(4-cyanophcnyl)-5-{[(3R)-1-methylpiperidin-3-yl]methoxy}imidazo[1,2-c]pyrimidin-8-yl)-N,N-dimethyl-2,3-dihydro-1,4-benzodioxine-2-carboxamide]	≤ 50
Cc1nc2cc(-c3c(-c4ccc(C#N)cc4)nc(OC[C@@H]4CCCN(C)C4)n4ccnc34)ccc2n1C [Example 65, 4-(8-(1,2-dimethyl-1H-benzimidazol-5-yl)-5-{[(3R)-1-methylpiperidin-3-yl]methoxy}imidazo[1,2-c]pyrimidin-7-yl)benzonitrile]	≤ 50
CN1CCC[C@@H](COc2nc(-c3ccc(C#N)cc3)c(-c3cnc4c(cnn4C)c3)c3nccn23)C1 [Example 28, 4-[5-{[(3R)-1-methylpiperidin-3-yl]methoxy}-8-(1-methyl-1H-pyrazolo[3,4-b]pyridin-5-yl)imidazo [1,2-c]pyrimidin-7-yl]benzonitrile]	≤ 50
Cc1ccc(-c2c(-c3ccc(C#N)cc3)nc(N3CC[C@@H](N(C)C)C3)n3ccnc23)cc1CO [Example 100, 4-{5-[(3R)-3-(dimethylamino)pyrrolidin-1-yl]-8-[3-(hydroxymethyl)-4-methylphenyl]imidazo[1,2-c]pyrimidin-7-yl}benzonitrile]	≤ 50
COc1ccc(-c2c(-c3ccc(C#N)cc3)nc(N3CCC(N(C)C)CC3)n3ccnc23)cn1 [Example 48, 4-[5-[4-(dimethylamino)piperidin-1-yl]-8-(6-methoxypyridin-3-yl)imidazo[1,2-c]pyrimidin-7-yl]benzonitrile]	50 to 500
